7 molecules from PubChem BioAssay (NCI) can be followed below.

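48-hour exposure; five concentrations; linearly interpolated endpoints. TGI: total growth inhibition.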 Bounds are passed on as bounds.

Holding throughout (experiment): NCI-60 cell line screen, 48 h
Assay [1] concerns LOX IMVI melanoma.
For assay [2], the system named is IGROV1 ovarian.
Assay [3] has as its system ACHN renal.
For assay [4], the system named is SN12C renal.
The subject of assay [5] is TK-10 renal.
Assay [6] has as its system M14 melanoma.
Assay [7] has as its system SF-268 CNS.
Assay [8] has as its system RXF 393 renal.
In assay [9] the test system is SR leukemia.
The subject of assay [10] is SNB-75 CNS.
The test system of assay [11] is NCI-H23 lung.
Assay [12] relates to OVCAR-3 ovarian.
Assay [13] relates to MDA-N.
For assay [14], the system named is OVCAR-5 ovarian.
In assay [15] the test system is CCRF-CEM leukemia.
In assay [16] the test system is HT29 colon.
In assay [17] the test system is MDA-MB-231 breast.
For assay [18], the system named is RPMI-8226 leukemia.
Assay [19] relates to A498 renal.
The subject of assay [20] is T-47D breast.

As to `COc1cccc(O)c1-c1cc(=O)c2c(O)c(OC)c(OC)c(OC)c2o1`, the TGI was > 100 µM in assay [1]; > 100 µM in assay [2]; > 100 µM in assay [3]; 93.4 µM in assay [4]; > 100 µM in assay [5]; 68.4 µM in assay [6]. The TGI in assay [7] was > 100 µM; in assay [8] it was 42.9 µM; in [9], 40.1 µM; in assay [10] it was 76.1 µM; in [11], 85.5 µM; in [12], 66.3 µM. In addition, the TGI in assay [13] was 49.2 µM; in [14], > 100 µM; in [15] it was > 100 µM; in assay [16], 91 µM; in [17], > 100 µM; in assay [18], 58.4 µM.
Turning to `Cc1c(CNc2ccc(Cl)c(Cl)c2Cl)cnc2nc(N)nc(N)c12`, the TGI is 13.6 µM in [1]; > 49.3 µM in assay [2]; > 48.8 µM in [3]; > 100 µM in assay [4]; 48.3 µM in assay [5]; > 100 µM in [6]. The TGI was > 45.5 µM in assay [7]; > 55.5 µM in [8]; > 57.9 µM in assay [9]; 24.3 µM in assay [10]; > 49.3 µM in assay [11]; > 51.3 µM in assay [12]. Moreover, the TGI is > 32 µM in assay [13]; > 50.4 µM in [14]; > 100 µM in assay [19]; 6.55 µM in [15]; > 53.9 µM in [16]; 24.9 µM in assay [20]. The molecule also registered a TGI in assay [18] of 49 µM.
Regarding `O=C1/C(=C/c2ccc(Cl)cc2)NC(=S)N1CN1CCCCC1`, the TGI in [1], in [2], in assay [3], in assay [4], in [5] and in assay [6] was > 100 µM throughout. The TGI is 78.8 µM in assay [7]; > 100 µM in [9]; > 100 µM in assay [10]; > 100 µM in [11]; > 100 µM in assay [12]; > 100 µM in [13]. Moreover, the TGI in assay [14] was > 100 µM; in assay [19] it was > 100 µM; in assay [15] it was 78.2 µM; in assay [16], 29.3 µM; in assay [17] it was > 100 µM; in assay [18], 76.5 µM.
Take `c1ccc2sc(C3(N4CCCCCC4)CCCCC3)cc2c1`: the TGI in [1] is 43.4 µM; in assay [2], > 100 µM; in assay [3], 83.8 µM; in assay [4], 43.7 µM; in [5], 53.4 µM; in assay [6], 53.6 µM. The TGI came to 52.5 µM in assay [7]; 33.4 µM in assay [8]; 62.1 µM in assay [10]; 41.5 µM in assay [11]; 38.6 µM in [12]; 97.6 µM in assay [13]. Further, the TGI came to 37.4 µM in assay [14]; 36.8 µM in assay [19]; 33.3 µM in assay [15]; 36.8 µM in assay [16]; 47.5 µM in assay [17].
`Cn1c2ccccc2n2c3ccccc3c3nnc(N)c-3c12`: the TGI in assay [1] is > 100 µM; in [2], > 100 µM; in assay [3], > 100 µM; in assay [4], 10 µM; in assay [5] it was > 100 µM; in assay [6], > 100 µM. Further, the TGI in [7] is 3.68 µM; in assay [8] it was > 87.6 µM; in assay [9] it was > 100 µM; in [10] it was 11.8 µM; in assay [11], > 100 µM; in assay [12] it was > 100 µM. Further, the TGI was > 100 µM in [14]; > 100 µM in [19]; > 100 µM in [15]; > 100 µM in assay [16]; > 100 µM in assay [17]; 12.9 µM in assay [20]. Also, the TGI in assay [18] was > 100 µM.
With `COC(=O)C#CC1(O)C=CC(=O)C=C1`, the TGI is 1.9 µM in assay [1]; 2.85 µM in assay [2]; 10.1 µM in [3]; 5.22 µM in assay [5]; 12.1 µM in assay [6]; 3.18 µM in [7]. Further, the TGI is 3.76 µM in [8]; 15.2 µM in [9]; 18.1 µM in assay [10]; 6.28 µM in [11]; 1.6 µM in assay [12]; > 34.5 µM in [13]. The TGI in [14] was 10.4 µM; in assay [19], > 100 µM; in assay [15], 0.758 µM; in [16], 13.5 µM; in [20], 3.74 µM; in [18], 2.67 µM.
Turning to `C/C(=N\NC(N)=O)C(CN1CCOCC1)C(c1ccccc1)c1c(O)c2ccccc2oc1=O` (stereo unspecified), the TGI in assay [1], in assay [2], in assay [3], in assay [5], in assay [6] and in assay [7] was > 100 µM in each case. Also, the TGI in [9], in assay [10], in [11], in assay [12], in assay [13] and in assay [14] was > 100 µM each time. In addition, the TGI is 91.8 µM in assay [19]; > 100 µM in [15]; > 100 µM in assay [16]; > 100 µM in [17]; > 100 µM in assay [18].
